Results as given in patent publication US9409952B2, “Peptide-compound cyclization method” (Chugai Seiyaku Kabushiki Kaisha, priority 2011, dated 2016).
Starred links: 1 amine or outer side, 2 acyl side, 3 side chain; linkers in the order of their positions; H or OH if unused. Positions of bridges follow the written chain, without caps; N, C: chain ends. Non-standard residues stand in square brackets, D forms with d. Residues, ends and D or L forms follow the SMILES beside them. *: point of attachment. NMeF = CN[C@@H](Cc1ccccc1)C(=O)O; NMeβAla = CN(CCC(=O)[*:2])[*:1]; NMeL = CN[C@@H](CC(C)C)C(=O)O; NMeV = CN[C@H](C(=O)O)C(C)C; NMeA = CN[C@@H](C)C(=O)O; Piperidide = C1CCN(*)CC1; dNMeA = CN[C@H](C)C(=O)O; Sar = CNCC(=O)O; tBu = CC(C)(C)*

Columns and labels:
[1] = PAMPA (parallel artificial membrane permeability assay); format: in vitro ADME; details: membrane permeation rate (Pe), 50 mM MOPSO buffer pH 6.5 with 5.0% glycocholic acid, 37° C., 18 hours; for Papp at 18 hours, 50 µM: PAMPA, read-out: iPAMPA Pe
Method in brief: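 Artificial membrane was 10% (w/v) egg lecithin plus 0.5% (w/v) cholesterol in dodecane on a PVDF filter. A 10 mM DMSO stock was added at 0.5% (v/v) to donor buffer (50 mM MOPSO, pH 6.5, 5.0% glycocholic acid). After 18 h at 37 °C, LC/MS or LC/UV gave donor and acceptor levels for Pe.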

[2] = Metabolic stability in human hepatic microsome; format: in vitro ADME; details: microsomes, pH 7.4; human hepatic microsome, NADPH(+); read-out: CL NADPH(+)

Row | Structure (SMILES) | Papp at 18 hours, 50 µM [1] [×10⁻⁶ cm/s] | microsomal CLint at 1 uM [2] [µL/min/mg] | iPAMPA Pe [1]
1 | CC(C)C[C@H]1C(=O)N[C@@H](C(C)C)C(=O)N(C)[C@@H](C)C(=O)N[C@@H]([C@@H](C)O)C(=O)N(C)[C@@H](C)C(=O)N[C@H](C(=O)N2CCCCC2)CC(=O)N(C)CCC(=O)N(C)[C@@H](C)C(=O)N(C)[C@@H](Cc2ccccc2)C(=O)N[C@@H](C)C(=O)N(C)[C@@H](CC(C)C)C(=O)N(C)CC(=O)N1C [DP-511] ([NMeβAla][NMeA][NMeF]A[NMeL][Sar][NMeL]V[NMeA]T[NMeA]D-Piperidide; lactam N-12) | 1.1 | 15 | –
2 | CC[C@H](C)[C@@H]1NC(=O)[C@H](CC(C)C)N(C)C(=O)CN(C)C(=O)[C@H]([C@@H](C)O)NC(=O)[C@@H](C)N(C)C(=O)C[C@@H](C(=O)N2CCCCC2)NC(=O)[C@H](CC(C)C)N(C)C(=O)[C@H](Cc2ccccc2)N(C)C(=O)[C@H](CC(C)C)N(C)C1=O [DP-512] ([dNMeA]T[Sar][NMeL]I[NMeL][NMeF][NMeL]D-Piperidide; lactam N-9) | 18 | 62 | –
3 | CC[C@H](C)[C@@H]1NC(=O)[C@H](Cc2ccccc2)NC(=O)[C@H](CC(C)C)NC(=O)[C@H](CC(C)C)NC(=O)[C@H](C)NC(=O)C[C@@H](C(=O)N2CCCCC2)NC(=O)[C@H](CC(C)C)N(C)C(=O)[C@H](Cc2ccccc2)NC(=O)[C@H](CC(C)C)NC(=O)CNC(=O)[C@H]([C@@H](C)O)NC1=O [DP-513] (ALLFITGLF[NMeL]D-Piperidide; lactam N-11) | 30 | 184 | –
4 | CC(C)C[C@@H]1NC(=O)[C@H](C)NC(=O)[C@H]([C@@H](C)O)NC(=O)[C@H](CC(C)C)NC(=O)[C@H](CC(C)C)NC(=O)[C@H](C(C)C)NC(=O)CCN(C)C(=O)C[C@@H](C(=O)N2CCCCC2)NC(=O)[C@H](CC(C)C)NC(=O)[C@H](Cc2ccccc2)NC(=O)[C@H](CC(C)C)NC1=O [DP-514] ([NMeβAla]VLLTALLFLD-Piperidide; lactam N-11) | 6.8 | 103 | –
5 | CC[C@H](C)[C@@H]1NC(=O)[C@H](Cc2ccccc2)NC(=O)[C@H](CC(C)C)NC(=O)[C@@H](C)NC(=O)C[C@@H](C(=O)N2CCCCC2)NC(=O)[C@H](Cc2ccccc2)NC(=O)[C@H](CC(C)C)NC(=O)[C@H]([C@@H](C)O)NC(=O)[C@H](Cc2ccccc2)NC(=O)[C@H](CC(C)C)NC1=O [DP-515] ([dA]LFILFTLFD-Piperidide; lactam N-10) | – | 23 | 1.0E−07
6 | CC[C@H](C)[C@@H]1NC(=O)[C@H](CC(C)C)N(C)C(=O)[C@H](Cc2ccccc2)N(C)C(=O)CN(C)C(=O)[C@H](C)N(C)C(=O)[C@H](Cc2ccccc2)N(C)C(=O)[C@H](C)N(C)C(=O)[C@H]([C@@H](C)O)NC(=O)[C@H](C(C)C)N(C)C(=O)CCN(C)C(=O)C[C@@H](C(=O)N2CCCCC2)NC1=O [DP-516] ([NMeβAla][NMeV]T[NMeA][NMeF][NMeA][Sar][NMeF][NMeL]ID-Piperidide; lactam N-11) | 9.1 | 19 | –
7 | CC(C)C[C@@H]1NC(=O)[C@H](CC(C)C)N(C)C(=O)[C@H](C)N(C)C(=O)C[C@@H](C(=O)N2CCCCC2)NC(=O)[C@H](CC(C)C)N(C)C(=O)[C@H](Cc2ccccc2)N(C)C(=O)[C@H](C)N(C)C(=O)[C@H]([C@@H](C)O)NC(=O)[C@H](Cc2ccccc2)N(C)C1=O [DP-520] ([NMeA][NMeL]L[NMeF]T[NMeA][NMeF][NMeL]D-Piperidide; lactam N-9) | 29 | 130 | –
8 | CC(C)C[C@H]1C(=O)N(C)[C@@H](Cc2ccccc2)C(=O)N[C@H](C(=O)N2CCCCC2)CC(=O)N(C)CC(=O)N[C@@H]([C@@H](C)O)C(=O)N(C)[C@@H](C)C(=O)N[C@@H](COC(C)(C)C)C(=O)N(C)[C@@H](Cc2ccccc2)C(=O)N1C [DP-521] ([Sar]T[NMeA]S(tBu)[NMeF][NMeL][NMeF]D-Piperidide; lactam N-8) | 44 | 125 | –
